The values below come from ChEMBL document CHEMBL5214968, “Recent Scaffold Hopping Applications in Central Nervous System Drug Discovery” (J Med Chem, 2022).

The target in one assay is Mu-type opioid receptor (Homo sapiens, UniProt P35372). Kind of assay: Displacement of [3H]DAMGO from human cloned mu-opioid receptor by radioligand binding assay. Background: Displacement assays read how much labelled ligand stays bound in the presence of the test substance.
Assay [1] deals with Microtubule-associated protein tau (Homo sapiens) (UniProt P10636). Description: Inhibition of heparin-induced tau protein (unknown origin) aggregation at 100 uM incubated for 3 days by Thioflavin T fluorescence assay. The following applies: time 3.0 day.
Chain of Microtubule-associated protein tau (Homo sapiens) (P10636 whole entry): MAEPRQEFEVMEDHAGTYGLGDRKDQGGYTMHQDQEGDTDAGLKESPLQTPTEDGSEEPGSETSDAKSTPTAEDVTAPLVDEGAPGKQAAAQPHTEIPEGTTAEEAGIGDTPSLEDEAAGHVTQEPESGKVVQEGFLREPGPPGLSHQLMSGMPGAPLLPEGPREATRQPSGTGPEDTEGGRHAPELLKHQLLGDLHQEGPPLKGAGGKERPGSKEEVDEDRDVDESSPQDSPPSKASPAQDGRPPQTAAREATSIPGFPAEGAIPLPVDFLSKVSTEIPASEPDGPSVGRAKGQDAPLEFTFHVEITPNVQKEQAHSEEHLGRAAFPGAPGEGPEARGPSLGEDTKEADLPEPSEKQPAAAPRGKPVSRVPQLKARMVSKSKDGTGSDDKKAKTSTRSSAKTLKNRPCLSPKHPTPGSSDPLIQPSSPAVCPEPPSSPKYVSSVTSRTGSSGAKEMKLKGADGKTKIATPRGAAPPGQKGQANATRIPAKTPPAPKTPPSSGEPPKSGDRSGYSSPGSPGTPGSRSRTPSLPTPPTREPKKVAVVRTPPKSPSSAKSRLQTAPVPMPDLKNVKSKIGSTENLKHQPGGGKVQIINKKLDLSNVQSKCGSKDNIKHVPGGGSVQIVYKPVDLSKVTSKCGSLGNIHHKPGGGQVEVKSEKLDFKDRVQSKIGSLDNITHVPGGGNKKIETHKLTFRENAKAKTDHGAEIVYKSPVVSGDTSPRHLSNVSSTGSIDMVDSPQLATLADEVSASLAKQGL
The target of a further assay is Cannabinoid receptor 1 (Homo sapiens, UniProt P21554). Description: Agonist activity at human CB1 receptor expressed in mouse AtT20 cells by FLIPR assay. The class given is functional, cell-based.
Chain of Cannabinoid receptor 1 (P21554 whole entry): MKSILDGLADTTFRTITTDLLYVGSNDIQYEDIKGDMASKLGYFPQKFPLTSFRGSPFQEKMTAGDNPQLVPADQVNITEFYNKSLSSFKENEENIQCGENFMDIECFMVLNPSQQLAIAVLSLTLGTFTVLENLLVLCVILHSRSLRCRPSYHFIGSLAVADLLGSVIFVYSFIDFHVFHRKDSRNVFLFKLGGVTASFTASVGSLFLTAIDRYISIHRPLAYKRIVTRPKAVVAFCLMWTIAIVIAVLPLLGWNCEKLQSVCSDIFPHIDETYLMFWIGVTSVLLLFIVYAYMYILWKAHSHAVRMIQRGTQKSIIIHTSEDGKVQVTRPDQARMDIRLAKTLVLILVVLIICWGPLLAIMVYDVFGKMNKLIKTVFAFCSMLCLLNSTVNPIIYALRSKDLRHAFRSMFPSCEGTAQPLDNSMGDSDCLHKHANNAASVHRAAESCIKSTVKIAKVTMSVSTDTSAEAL
Another assay addresses Cannabinoid receptor 2 (Homo sapiens, UniProt P34972). Kind of assay: Agonist activity at human CB2 receptor expressed in mouse AtT20 cells by FLIPR assay. The format is functional, cell-based.
Assay [2] deals with T1, Cyclin-G-associated kinase (Homo sapiens, UniProt O14976).
T1 sequence (O14976 whole entry): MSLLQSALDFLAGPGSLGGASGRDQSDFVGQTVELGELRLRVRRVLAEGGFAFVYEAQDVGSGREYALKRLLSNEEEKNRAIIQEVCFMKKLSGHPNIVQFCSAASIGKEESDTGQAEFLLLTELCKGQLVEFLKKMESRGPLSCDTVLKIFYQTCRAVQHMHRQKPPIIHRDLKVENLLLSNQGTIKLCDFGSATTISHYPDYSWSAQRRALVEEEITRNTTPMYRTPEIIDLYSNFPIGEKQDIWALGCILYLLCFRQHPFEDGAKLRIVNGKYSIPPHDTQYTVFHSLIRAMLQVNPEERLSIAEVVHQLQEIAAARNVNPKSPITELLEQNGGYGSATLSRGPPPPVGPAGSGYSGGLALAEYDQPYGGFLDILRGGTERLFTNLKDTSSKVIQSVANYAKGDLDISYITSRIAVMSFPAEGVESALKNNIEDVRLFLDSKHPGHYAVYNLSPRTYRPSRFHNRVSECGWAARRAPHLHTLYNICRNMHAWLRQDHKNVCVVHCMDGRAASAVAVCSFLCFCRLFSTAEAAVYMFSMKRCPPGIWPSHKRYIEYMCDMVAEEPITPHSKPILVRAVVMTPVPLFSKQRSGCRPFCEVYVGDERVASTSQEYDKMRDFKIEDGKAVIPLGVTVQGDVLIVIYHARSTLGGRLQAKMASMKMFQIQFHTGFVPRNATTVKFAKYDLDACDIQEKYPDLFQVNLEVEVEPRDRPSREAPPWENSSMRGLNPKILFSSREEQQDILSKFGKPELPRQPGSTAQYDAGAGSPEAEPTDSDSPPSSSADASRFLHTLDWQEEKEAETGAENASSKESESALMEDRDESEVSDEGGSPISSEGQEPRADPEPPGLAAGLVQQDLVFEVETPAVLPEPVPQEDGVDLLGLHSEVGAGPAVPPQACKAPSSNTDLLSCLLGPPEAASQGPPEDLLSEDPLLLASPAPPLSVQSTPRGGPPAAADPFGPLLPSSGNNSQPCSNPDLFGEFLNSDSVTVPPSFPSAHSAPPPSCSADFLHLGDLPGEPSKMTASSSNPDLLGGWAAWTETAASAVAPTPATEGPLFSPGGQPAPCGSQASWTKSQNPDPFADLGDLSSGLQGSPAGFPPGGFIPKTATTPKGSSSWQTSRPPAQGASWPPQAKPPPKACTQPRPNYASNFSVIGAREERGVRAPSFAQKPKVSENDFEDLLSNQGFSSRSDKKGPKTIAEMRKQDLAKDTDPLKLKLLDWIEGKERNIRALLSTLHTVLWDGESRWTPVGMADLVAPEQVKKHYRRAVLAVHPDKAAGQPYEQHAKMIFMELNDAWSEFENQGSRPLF
Kind of assay: Binding affinity to GAK (unknown origin) by KINOMEscan analysis.

Chain of Cannabinoid receptor 2 (P34972 whole entry): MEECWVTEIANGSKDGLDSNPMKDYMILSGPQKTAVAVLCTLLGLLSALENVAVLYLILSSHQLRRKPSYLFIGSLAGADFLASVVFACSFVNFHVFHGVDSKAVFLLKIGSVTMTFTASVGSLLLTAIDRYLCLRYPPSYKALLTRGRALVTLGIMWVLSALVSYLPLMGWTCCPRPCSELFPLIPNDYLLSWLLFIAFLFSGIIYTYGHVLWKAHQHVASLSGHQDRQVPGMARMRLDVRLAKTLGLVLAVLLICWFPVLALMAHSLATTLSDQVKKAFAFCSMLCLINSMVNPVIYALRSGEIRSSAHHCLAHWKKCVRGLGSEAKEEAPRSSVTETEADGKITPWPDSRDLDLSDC
Chain of Mu-type opioid receptor (P35372 whole entry): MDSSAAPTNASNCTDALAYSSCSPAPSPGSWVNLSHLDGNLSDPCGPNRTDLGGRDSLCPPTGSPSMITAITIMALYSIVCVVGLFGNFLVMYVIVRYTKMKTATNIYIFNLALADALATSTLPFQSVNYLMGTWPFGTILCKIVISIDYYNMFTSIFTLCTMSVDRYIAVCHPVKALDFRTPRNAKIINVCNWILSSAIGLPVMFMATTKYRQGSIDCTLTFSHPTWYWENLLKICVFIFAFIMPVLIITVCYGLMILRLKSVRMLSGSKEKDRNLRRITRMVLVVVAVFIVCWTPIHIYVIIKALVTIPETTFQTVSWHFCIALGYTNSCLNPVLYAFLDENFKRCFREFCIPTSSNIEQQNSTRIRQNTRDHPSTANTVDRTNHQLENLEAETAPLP

The term Ki denotes the equilibrium dissociation constant of an inhibitor or competing ligand from its target. On Mu-type opioid receptor, `O=C(NCCc1ccccc1)[C@H]1CCN(C(=O)Cc2ccc(O)cc2)[C@@H]1C(=O)NCCc1c[nH]c2ccccc12` displayed an inhibitory constant (Ki) of 820 nM.
The inhibition is how much of the control response was suppressed. `O=C(NC1CC1)c1nn(-c2ccc(F)cc2)c(=O)c2cscc12`: the inhibition in assay [1] was 51%.
Same read-out and setting: in the case of `O=C(NC1CC1)/C(=N\O)c1cscc1C(=O)NC12CC3CC(CC(C3)C1)C2` it was 30%.
The EC50 is the concentration at which the effect is half-maximal. A lower EC50 goes with greater potency. On to `CC(C)(NC(=O)c1cn(CCCCCF)c2ncccc12)c1ccccc1`, for which the EC50 on Cannabinoid receptor 1 was determined as 4.7 nM; at Cannabinoid receptor 2, 11.3 nM.
The matching figures for `CC(C)(NC(=O)c1cn(CCCCCF)c2ccccc12)c1ccccc1`: 2.8 nM and 39.6 nM.
`CC(C)(NC(=O)c1nn(CCCCCF)c2ccccc12)c1ccccc1`: the EC50 on Cannabinoid receptor 1 came out at 0.43 nM; at Cannabinoid receptor 2, 11.2 nM.
By Kd is commonly meant the concentration at which binding is half-saturated. As to `COc1ccc(-c2cnc3c(c2)nnn3-c2ccccc2)cc1OC`, the Kd in assay [2] is over 30000 nM.
As to `C=CCO/N=C(\C(=O)NC1CC1)c1cscc1C(=O)Nc1ccc(F)cc1`, in assay [1], the inhibition is 33%.
